Data as given in patent US20160016929A1, “PRO-DRUG COMPOUNDS” (PROXIMAGEN LIMITED, priority 2013, published 2016).
Where two headings read alike, the source gives them in different places.

Assays:
[1] = molecular target: T1, human ether a go-go related gene (hERG) K+ channel (Homo sapiens, UniProt Q12809); test: hERG assay, IonWorks patch clamp electrophysiology; assay type: cell-based; settings: Chinese Hamster Lung cell line stably expressing hERG; IonWorks Quattro
T1 construct: a Chinese Hamster Lung cell line stably expressing the full length hERG channel; expressed in transfected cells; host or cells: Chinese Hamster Lung cell line
T1 sequence (Q12809 whole entry): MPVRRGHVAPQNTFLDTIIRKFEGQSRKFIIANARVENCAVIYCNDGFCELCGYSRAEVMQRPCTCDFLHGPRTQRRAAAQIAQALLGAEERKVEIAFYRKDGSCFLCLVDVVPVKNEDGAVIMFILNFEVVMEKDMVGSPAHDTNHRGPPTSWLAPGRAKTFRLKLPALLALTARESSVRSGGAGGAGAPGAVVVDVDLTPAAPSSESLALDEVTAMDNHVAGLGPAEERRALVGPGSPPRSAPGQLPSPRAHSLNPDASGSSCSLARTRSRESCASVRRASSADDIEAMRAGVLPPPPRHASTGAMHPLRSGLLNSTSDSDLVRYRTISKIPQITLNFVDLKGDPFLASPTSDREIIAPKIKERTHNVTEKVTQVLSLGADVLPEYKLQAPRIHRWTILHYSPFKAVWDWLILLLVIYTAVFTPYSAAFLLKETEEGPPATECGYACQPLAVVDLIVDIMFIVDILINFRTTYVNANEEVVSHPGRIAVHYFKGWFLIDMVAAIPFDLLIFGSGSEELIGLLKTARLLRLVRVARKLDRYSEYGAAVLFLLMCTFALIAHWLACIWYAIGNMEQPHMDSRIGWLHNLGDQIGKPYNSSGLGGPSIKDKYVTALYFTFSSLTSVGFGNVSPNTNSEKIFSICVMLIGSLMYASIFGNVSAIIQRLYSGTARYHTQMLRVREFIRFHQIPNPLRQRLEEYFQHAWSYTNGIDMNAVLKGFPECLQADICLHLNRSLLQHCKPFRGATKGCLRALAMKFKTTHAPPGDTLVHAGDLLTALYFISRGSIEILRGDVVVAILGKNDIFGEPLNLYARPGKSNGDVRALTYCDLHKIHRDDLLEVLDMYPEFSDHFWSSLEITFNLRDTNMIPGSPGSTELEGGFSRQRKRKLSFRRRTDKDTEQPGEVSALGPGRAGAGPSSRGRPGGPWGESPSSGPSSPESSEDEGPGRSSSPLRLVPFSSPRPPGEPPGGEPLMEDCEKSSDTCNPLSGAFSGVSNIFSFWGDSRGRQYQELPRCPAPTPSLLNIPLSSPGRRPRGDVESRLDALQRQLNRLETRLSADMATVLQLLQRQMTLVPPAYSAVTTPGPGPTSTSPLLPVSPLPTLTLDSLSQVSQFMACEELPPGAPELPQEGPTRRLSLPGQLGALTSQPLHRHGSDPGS
Protocol: (§1) Compounds of the invention were tested for inhibition of the human ether a go-go related gene (hERG) K^+ channel using IonWorks patch clamp electrophysiology. 8 Point concentration-response curves were generated on two occasions using 3-fold serial dilutions from the maximum assay concentration (33 uM). Electrophysiological recordings were made from a Chinese Hamster Lung cell line stably expressing the full length hERG channel. Single cell ion currents were measured in the perforated patch clamp configuration (100 ug/mL amphoterocin) at room temperature using an IonWorks Quattro instrument. The internal solution contained 140 mM KCl, 1 mM MgCl2, 1 mM EGTA and 20 mM HEPES and was buffered to pH 7.3. The external solution contained 138 mM NaCl, 2.7 mM KCl, 0.9 mM CaCl2, 0.5 mM MgCl2, 8 mM Na2HPO4 and 1.5 mM KH2PO4, and was buffered to pH 7.3. Cells were clamped at a holding potential of […] for 30 s and then stepped to +40 mV for 1 s. This was followed by a hyperpolarising step of 1 s to […] to evoke the hERG tail current. This sequence was repeated 5 times at a frequency of 0.25 Hz. Currents were measured from the tail step at the 5th pulse, and referenced to the holding current. Compounds were incubated for 6-7 min prior to a second measurement of the hERG signal using an identical pulse train. A minimum of 17 cells were required for each pIC50 curve fit. A control compound (quinidine) was used.

[2] = Solubility in aqueous solutions (Table 3); assay type: physicochemical; settings: aqueous solution
Protocol: The skilled person understands that the pH of the gastrointestinal tract changes along its length. […] For more detail see, for example, Measurement of gastrointestinal pH profiles in normal ambulant human subjects, Gut. […] Improved solubility is expected to result in improved absorption, and therefore improved oral bioavailability.
In an embodiment prodrugs of the invention are administered intravenously. High prodrug solubility is advantageous in order to reduce the volume of solution administered to the patient, and to reduce the risk of damage to the circulatory system. Solubility of >10 mg/mL is preferred.

[3] = test system: unique stereo-selective site in rat and human brains; settings: cited from earlier work
[4] = test system: unique stereo-selective site in rat and human brains; settings: cited from earlier work; remark: listed apart in the source
high K+ evoked CSD [5] = settings: cats; cited from earlier work
high K+ evoked CSD [6] = settings: rats; cited from earlier work
[7] = Pharmacokinetics: exposure of tonabersat in plasma after oral or intravenous dosing of prodrugs to rats; assay type: in vivo; settings: fasted male Sprague Dawley rats; for % exposure of tonabersat after dosing the prodrugs of the invention via: Intravenous dosing (iv): compared to equimolar amount of tonabersat (0.78 mg/kg intravenous dosing); for % exposure of tonabersat after dosing the prodrugs of the invention via: Oral dosing (po): compared to equimolar amount of tonabersat (5.00 mg/kg oral dosing)
Protocol: Example Prodrugs of the claimed invention were dosed either intravenously or orally to fasted male Sprague Dawley rats. The rats underwent surgery for jugular vein cannulation 48 h prior to dosing. Following dosing, 0.25 mL blood samples were taken via the cannulae at 0, 5, 10, 20, 30, 45, 60, 120, 240 & 360 min in EDTA coated tubes. Tubes were spun at 13,000 rpm for 4 min and 100 ul of supernatant taken immediately and stored at −80° C. prior to analysis. Plasma samples were analysed by LC-MS/MS following extraction by protein precipitation, and levels of parent prodrug and tonabersat were measured by MRM (Multiple Reaction Monitoring) analysis against an extracted calibration curve of plasma samples spiked with the Example prodrug and tonabersat.
The exposure of tonabersat in plasma following dosing of the prodrugs of the invention was compared directly to the exposure observed following dosing of an equimolar amount of tonabersat under analogous assay conditions (5.00 mg/kg oral dosing or 0.78 mg/kg intravenous dosing). In an embodiment prodrugs of the present invention have >10% exposure of tonabersat obtained following either oral or intravenous dosing of the prodrug to a human or animal subject, compared to the exposure obtained from dosing an equimolar amount of tonabersat itself. In an embodiment the exposure of tonabersat following dosing of the prodrugs is >20%, or >30%, or >40%, or >50%, or preferably >70% compared to the exposure obtained from dosing an equimolar amount of tonabersat itself.

hERG K+ channel = molecular target: T2, hERG K+ channel (Homo sapiens, UniProt Q12809); test: hERG assay, IonWorks patch clamp electrophysiology; assay type: cell-based; settings: human, pH 7.3; 11 uM; Chinese Hamster Lung cell line stably expressing hERG
T2 construct: a Chinese Hamster Lung cell line stably expressing the full length hERG channel; expressed in transfected cells; host or cells: Chinese Hamster Lung cell line
T2 sequence (Q12809 whole entry): as above
Protocol: as §1

Row | Structure (SMILES) | solubility ([2]; aqueous buffer, pH not given) [µg/mL] | % exposure of tonabersat after dosing the prodrugs of the invention via: Intravenous dosing (iv) [7] | % exposure of tonabersat after dosing the prodrugs of the invention via: Oral dosing (po) [7] | IC50 [1] [µM] | inhibition at 11 µM (hERG K+ channel) [%] | other results
1 | CC(=O)c1ccc2c(c1)[C@H](NC(=O)c1ccc(F)c(Cl)c1)[C@H](OC(=O)OCCN1CCCCC1)C(C)(C)O2 [Example 30, (3S,4S)-6-Acetyl-4-[(3-chloro-4-fluorobenzene)amido]-2,2-dimethyl-3,4-dihydro-2H-1-benzopyran-3-yl 2-(piperidin-1-yl)ethyl carbonate] | – | – | – | 7 | – | –
2 | CC(=O)c1ccc2c(c1)[C@H](NC(=O)c1ccc(F)c(Cl)c1)[C@H](O)C(C)(C)O2 [Tonabersat, N-[(3S,4S)-6-Acetyl-3-hydroxy-2,2-dimethyl-3,4-dihydro-2H-1-benzopyran-4-yl]-3-chloro-4-fluorobenzamide] | – | – | – | – | – | binding affinity to brain site [3]: high affinity; binding affinity to brain site [4]: high affinity; inhibition of high K+ evoked CSD (high K+ evoked CSD [5]): inhibits; inhibition of high K+ evoked CSD (high K+ evoked CSD [6]): inhibits
3 | CC(=O)c1ccc2c(c1)[C@H](NC(=O)c1ccc(F)c(Cl)c1)[C@H](OC(=O)N1CCC(N3CCCCC3)CC1)C(C)(C)O2.Cl [Example 18, (3S,4S)-6-Acetyl-4-[(3-chloro-4-fluorobenzene)amido]-2,2-dimethyl-3,4-dihydro-2H-1-benzopyran-3-yl 4-(piperidin-1-yl)piperidine-1-carboxylate hydrochloride] | – | <LLOQ | <LLOQ | – | 28 | solubility ([2]; pH 6.3, aqueous buffer): > 10000 µg/mL

The next lines start with results.

Row | solubility ([2]; aqueous buffer, pH not given) [µg/mL] | % exposure of tonabersat after dosing the prodrugs of the invention via: Intravenous dosing (iv) [7] | % exposure of tonabersat after dosing the prodrugs of the invention via: Oral dosing (po) [7] | Structure (SMILES) | IC50 [1] [µM] | inhibition at 11 µM (hERG K+ channel) [%] | other results
4 | < 1000 | – | – | CC(=O)c1ccc2c(c1)[C@H](NC(=O)c1ccc(F)c(Cl)c1)[C@H](OC(=O)OCCN1CCOCC1)C(C)(C)O2 [Example 4, (3S,4S)-6-Acetyl-4-[(3-chloro-4-fluorobenzene)amido]-2,2-dimethyl-3,4-dihydro-2H-1-benzopyran-3-yl 2-(morpholin-4-yl)ethyl carbonate] | 9.8 | – | –
5 | – | <LLOQ | <LLOQ | CC(=O)c1ccc2c(c1)[C@H](NC(=O)c1ccc(F)c(Cl)c1)[C@H](OC(=O)N[C@@H](CCCCN)C(=O)O)C(C)(C)O2.Cl [Example 9, (2S)-2-[({[(3S,4S)-6-acetyl-4-[(3-chloro-4-fluorobenzene)amido]-2,2-dimethyl-3,4-dihydro-2H-1-benzopyran-3-yl]oxy}carbonyl)amino]-6-aminohexanoic acid hydrochloride] | – | 8 | solubility ([2]; pH 4.9, aqueous buffer): 10000 µg/mL
6 | < 1000 | – | – | CC(=O)c1ccc2c(c1)[C@H](NC(=O)c1ccc(F)c(Cl)c1)[C@H](OC(=O)OCCN(C)C)C(C)(C)O2 [Example 1, (3S,4S)-6-Acetyl-4-[(3-chloro-4-fluorobenzene)amido]-2,2-dimethyl-3,4-dihydro-2H-1-benzopyran-3-yl 2-(dimethylamino)ethyl carbonate] | > 20 | 25 | –
